# Source: patent US3997403A, “Antibiotic G-418 and the production thereof” (Schering Corporation, priority 1975, dated 1976)
# What was measured:
# [1] = system: Eschericia coli Sc.; assay: In vivo protective activity in infected mice; design: species or system Carworth Farms CF-1 mice; settings: S.C., dosed 1 hour after i.p. lethal infection, survival at 48 hours
# Experimental: (§1) In Table VI is set forth in vivo antibacterial data obtained with Antibiotic G-418. The host animals used to obtain the data were Carworth Farms CF-1 mice weighing about 18-20 g. In vivo protection (PD50) is determined by injecting the mice (in groups of seven) intraperitoneally with a lethal dose of pathogenic bacteria. The mice are dosed with Antibiotic G-418 1 hour later. The non-protected controls die in 18-24 hours whereas the survivors are alive 48 hours after infection when the test is terminated. The data is analyzed by standard probit procedures to determine PD50 values with 95% confidence limits.
# [2] = system: Staphylococcus aureus St. M No. 1; assay: In vivo protective activity in infected mice; design: species or system Carworth Farms CF-1 mice; settings: S.C., dosed 1 hour after i.p. lethal infection, survival at 48 hours
# Experimental: as §1
# [3] = system: Staphylococcus aureus Gray; assay: In vivo protective activity in infected mice; design: species or system Carworth Farms CF-1 mice; settings: dosed 1 hour after i.p. lethal infection, survival at 48 hours
# Experimental: as §1
# [4] = system: Pseudomonas aeruginosa No. 1; assay: In vivo protective activity in infected mice; design: species or system Carworth Farms CF-1 mice; settings: S.C., dosed 1 hour after i.p. lethal infection, survival at 48 hours
# Experimental: as §1
# [5] = system: Staphylococcus aureus Ziegler; assay: In Vitro Antibacterial Activity (Table IV); format: cell-based; settings: S. aureus Ziegler, Tryptose Phosphate Broth pH 7.2 - 7.5, read-out: MIC (Minimum Inhibitory Concentration)
# Description: (§2) In Table IV and Table V are set forth the in vitro antibacterial spectrum of Antibiotic G-418 against a variety of gram-positive and gram-negative bacteria using standard art recognized methods.
# (§3) *Minimum Inhibitory Concentration -- Medium: Tryptose Phosphate Broth pH
# [6] = system: Streptococcus sp. C203; assay: In Vitro Antibacterial Activity (Table IV); format: cell-based; settings: Tryptose Phosphate Broth pH 7.2 - 7.5, read-out: MIC (Minimum Inhibitory Concentration)
# Description: as §2, §3
# [7] = system: Pseudomonas aeruginosa 37; assay: In Vitro Antibacterial Activity (Table IV); format: cell-based; settings: P. aeruginosa 37, Tryptose Phosphate Broth pH 7.2 - 7.5, read-out: MIC (Minimum Inhibitory Concentration)
# Description: as §2, §3
# [8] = system: Escherichia coli Sc; assay: In Vitro Antibacterial Activity (Table IV); format: cell-based; settings: E. coli Sc, Tryptose Phosphate Broth pH 7.2 - 7.5, read-out: MIC (Minimum Inhibitory Concentration)
# Description: as §2, §3
# [9] = system: Staphylococcus aureus Gray; assay: In Vitro Antibacterial Activity (Table IV); format: cell-based; settings: S. aureus Gray, Tryptose Phosphate Broth pH 7.2 - 7.5, read-out: MIC (Minimum Inhibitory Concentration)
# Description: as §2, §3
# [10] = system: Staphylococcus aureus 209P; assay: In Vitro Antibacterial Activity (Table IV); format: cell-based; settings: S. aureus 209P, Tryptose Phosphate Broth pH 7.2 - 7.5, read-out: MIC (Minimum Inhibitory Concentration)
# Description: as §2, §3
# [11] = system: Pseudomonas aeruginosa VA6; assay: In Vitro Antibacterial Activity (Table IV); format: cell-based; settings: P. aeruginosa VA6, Tryptose Phosphate Broth pH 7.2 - 7.5, read-out: MIC (Minimum Inhibitory Concentration)
# Description: as §2, §3
# [12] = system: Streptococcus sp. C; assay: In Vitro Antibacterial Activity (Table IV); format: cell-based; settings: Tryptose Phosphate Broth pH 7.2 - 7.5, read-out: MIC (Minimum Inhibitory Concentration)
# Description: as §2, §3
# [13] = system: Klebsiella pneumoniae DA20; assay: In Vitro Antibacterial Activity (Table IV); format: cell-based; settings: K. pneumoniae DA20, Tryptose Phosphate Broth pH 7.2 - 7.5, read-out: MIC (Minimum Inhibitory Concentration)
# Description: as §2, §3
# [14] = system: Escherichia coli 894; assay: In Vitro Antibacterial Activity (Table IV); format: cell-based; settings: E. coli 894, Tryptose Phosphate Broth pH 7.2 - 7.5, read-out: MIC (Minimum Inhibitory Concentration)
# Description: as §2, §3
# [15] = system: Staphylococcus aureus Wood; assay: In Vitro Antibacterial Activity (Table IV); format: cell-based; settings: S. aureus Wood, Tryptose Phosphate Broth pH 7.2 - 7.5, read-out: MIC (Minimum Inhibitory Concentration)
# Description: as §2, §3
# [16] = Acute Toxicity; design: species or system Carworth Farms CF-1 mice; settings: mouse, in vivo, iv, I.V.
# [17] = system: Bacillus subtilis A.T.C.C. 6633; assay: standard disc plate microbiological assay; format: cell-based; settings: one microgram of the standard; Difco Antibiotic Medium No. 5
# Description: The assay is a standard disc plate assay using Difco Antibiotic Medium No. 5 and Bacillus subtilis A.T.C.C. 6633 as the test organism. The physical conditions of the test are substantially those described for neomycin (Grove and Randall), Assay Methods of Antibiotics published by Medical Encyclopedia Incorporated (1955). The assay is run against a standard preparation of Antibiotic G-418 having a defined potency of 1000 mcg/mg. […] The standard antibiotic sulfate salt assays about 750 mcg/mg. against the standard antibiotic base.
# [18] = system: Staphylococcus aureus 1257; assay: In Vitro Antibacterial Activity (Table V); format: cell-based; settings: S. aureus 1257, Mueller-Hinton Broth pH 7.2 - 7.5
# Description: as §2
# (§4) *Mueller -- Hinton Broth pH 7.2 - 7.5
# [19] = system: Staphylococcus aureus 23; assay: In Vitro Antibacterial Activity (Table V); format: cell-based; settings: S. aureus 23, Mueller-Hinton Broth pH 7.2 - 7.5
# Description: as §2, §4
# [20] = system: Staphylococcus aureus Sm 1; assay: In Vitro Antibacterial Activity (Table V); format: cell-based; settings: SM1, S. aureus Sm 1, Mueller-Hinton Broth pH 7.2 - 7.5
# Description: as §2, §4
# [21] = system: Escherichia coli 887; assay: In Vitro Antibacterial Activity (Table V); format: cell-based; settings: E. coli 887, Mueller-Hinton Broth pH 7.2 - 7.5
# Description: as §2, §4
# [22] = system: Streptococcus sp. 30; assay: In Vitro Antibacterial Activity (Table V); format: cell-based; settings: Mueller-Hinton Broth pH 7.2 - 7.5
# Description: as §2, §4
# [23] = system: Escherichia coli 777; assay: In Vitro Antibacterial Activity (Table V); format: cell-based; settings: E. coli 777, Mueller-Hinton Broth pH 7.2 - 7.5
# Description: as §2, §4
# [24] = system: Staphylococcus aureus 26; assay: In Vitro Antibacterial Activity (Table V); format: cell-based; settings: S. aureus 26, Mueller-Hinton Broth pH 7.2 - 7.5
# Description: as §2, §4
# [25] = system: Proteus mirabilis 12453; assay: In Vitro Antibacterial Activity (Table V); format: cell-based; settings: Mueller-Hinton Broth pH 7.2 - 7.5
# Description: as §2, §4
# [26] = system: Pseudomonas aeruginosa 20; assay: In Vitro Antibacterial Activity (Table V); format: cell-based; settings: P. aeruginosa 20, Mueller-Hinton Broth pH 7.2 - 7.5
# Description: as §2, §4
# [27] = system: Streptococcus sp. 16245; assay: In Vitro Antibacterial Activity (Table V); format: cell-based; settings: Mueller-Hinton Broth pH 7.2 - 7.5
# Description: as §2, §4
# [28] = system: Staphylococcus aureus 12; assay: In Vitro Antibacterial Activity (Table V); format: cell-based; settings: S. aureus 12, Mueller-Hinton Broth pH 7.2 - 7.5
# Description: as §2, §4
# [29] = system: Pseudomonas aeruginosa 1262; assay: In Vitro Antibacterial Activity (Table V); format: cell-based; settings: P. aeruginosa 1262, Mueller-Hinton Broth pH 7.2 - 7.5
# Description: as §2, §4
# [30] = system: Streptococcus sp. 6589; assay: In Vitro Antibacterial Activity (Table V); format: cell-based; settings: Mueller-Hinton Broth pH 7.2 - 7.5
# Description: as §2, §4
# [31] = system: Pseudomonas aeruginosa 1236; assay: In Vitro Antibacterial Activity (Table V); format: cell-based; settings: P. aeruginosa 1236, Mueller-Hinton Broth pH 7.2 - 7.5
# Description: as §2, §4
# [32] = system: Streptococcus sp. 3045; assay: In Vitro Antibacterial Activity (Table V); format: cell-based; settings: Mueller-Hinton Broth pH 7.2 - 7.5
# Description: as §2, §4
# [33] = system: Proteus morganii 8019; assay: In Vitro Antibacterial Activity (Table V); format: cell-based; settings: Morganella morganii, Mueller-Hinton Broth pH 7.2 - 7.5
# Description: as §2, §4
# [34] = system: Pseudomonas aeruginosa 83; assay: In Vitro Antibacterial Activity (Table V); format: cell-based; settings: P. aeruginosa 83, Mueller-Hinton Broth pH 7.2 - 7.5
# Description: as §2, §4
# [35] = system: Staphylococcus aureus 6; assay: In Vitro Antibacterial Activity (Table V); format: cell-based; settings: S. aureus 6, Mueller-Hinton Broth pH 7.2 - 7.5
# Description: as §2, §4
# [36] = system: Streptococcus sp. 27; assay: In Vitro Antibacterial Activity (Table V); format: cell-based; settings: Mueller-Hinton Broth pH 7.2 - 7.5
# Description: as §2, §4
# [37] = system: Bacillus subtilis 6633; assay: In Vitro Antibacterial Activity (Table V); format: cell-based; settings: B. subtilis 6633, Mueller-Hinton Broth pH 7.2 - 7.5
# Description: as §2, §4
# [38] = system: Proteus rettgeri 9250; assay: In Vitro Antibacterial Activity (Table V); format: cell-based; settings: Providencia rettgeri, Mueller-Hinton Broth pH 7.2 - 7.5
# Description: as §2, §4
# [39] = system: Staphylococcus aureus 32; assay: In Vitro Antibacterial Activity (Table V); format: cell-based; settings: S. aureus 32, Mueller-Hinton Broth pH 7.2 - 7.5
# Description: as §2, §4
# [40] = system: E. Histolytica; assay: Oral activity against experimental cecal E. Histolytica infections in rats; format: in vivo, male Royal Hart rats; settings: for A.D.I. (average degree of infection): scale 0 to 4, controls averaged 2.2
# Description: Table VII and Table VIII set forth in vivo test results which illustrate the antiprotozoal activity of Antibiotic G-418. The host for the tests were recently weaned male Royal Hart rats (3-4 weeks old) weighing about 50-70 g. The test procedure is a modification of one described by R. J. Schnitzer on pages 355-443 in Experimental Chemotherapy, Vol. 1, Academic Press, New York (1963).
# *A.D.I. -- defined as the average degree of infection based upon gross
# observations of pathological changes in the cecum and microscopic
# observations of the number of amoebae found. These observations are
# recorded on a scale of from zero to four, zero representing a
# substantially normal cecum. Untreated but infected controls range from
# about two to four. In the data set forth the controls averaged 2.2.
smiles,measurement,setting,value
CN[C@@H]1[C@@H](O)[C@@H](O[C@@H]2[C@@H](O)[C@H](O[C@H]3O[C@H]([C@@H](C)O)[C@@H](O)[C@H](O)[C@H]3N)[C@@H](N)C[C@H]2N)OC[C@]1(C)O [Antibiotic G-418],PD50,[1],1.5 mg/kg
same,PD50,[2],3.0 mg/kg
same,PD50,[3]; Oral,40 mg/kg
same,PD50,[3]; S.C.,2.5 mg/kg
same,PD50,[4],5.0 mg/kg
same,MIC,[5],0.8 µg/mL
same,MIC,[6],17.5 µg/mL
same,MIC,[7],17.5 µg/mL
same,MIC,[8],3 µg/mL
same,MIC,[9],7.5 µg/mL
same,MIC,[10],0.8 µg/mL
same,MIC,[11],3 µg/mL
same,MIC,[12],> 25 µg/mL
same,MIC,[13],3 µg/mL
same,MIC,[14],7.5 µg/mL
same,MIC,[15],0.8 µg/mL
same,LD50,[16],140 mg/kg
same,zone of inhibition,[17],16.5 ± 1.5 mm
same,MIC,[18],0.3 µg/mL
same,MIC,[19],0.3 µg/mL
same,MIC,[20],0.3 µg/mL
same,MIC,[21],3 µg/mL
same,MIC,[22],7.5 µg/mL
same,MIC,[23],3 µg/mL
same,MIC,[24],3 µg/mL
same,MIC,[25],7.5 µg/mL
same,MIC,[26],3 µg/mL
same,MIC,[27],7.5 µg/mL
same,MIC,[28],3 µg/mL
same,MIC,[29],17.5 µg/mL
same,MIC,[30],7.5 µg/mL
same,MIC,[31],17.5 µg/mL
same,MIC,[32],7.5 µg/mL
same,MIC,[33],0.8 µg/mL
same,MIC,[34],7.5 µg/mL
same,MIC,[35],0.3 µg/mL
same,MIC,[36],7.5 µg/mL
same,MIC,[37],3 µg/mL
same,MIC,[38],0.3 µg/mL
same,MIC,[39],7.5 µg/mL
same,Parasitological Cure Negative/Total,"[40]; oral 3.5 mg/kg/day, 3 days",0/7
same,A.D.I. (average degree of infection),"[40]; oral 3.5 mg/kg/day, 3 days",1.7
same,Parasitological Cure Negative/Total,"[40]; oral 3.5 mg/kg/day, 6 days",5/6
same,A.D.I. (average degree of infection),"[40]; oral 3.5 mg/kg/day, 6 days",0.2
same,Parasitological Cure Negative/Total,"[40]; oral 6.5 mg/kg/day, 1 day",2/5
same,A.D.I. (average degree of infection),"[40]; oral 6.5 mg/kg/day, 1 day",1.0
same,Parasitological Cure Negative/Total,"[40]; oral 6.5 mg/kg/day, 3 days",4/5
same,A.D.I. (average degree of infection),"[40]; oral 6.5 mg/kg/day, 3 days",0.4
same,Parasitological Cure Negative/Total,"[40]; oral 6.5 mg/kg/day, 6 days",4/4
same,A.D.I. (average degree of infection),"[40]; oral 6.5 mg/kg/day, 6 days",0
same,Parasitological Cure Negative/Total,"[40]; oral 10 mg/kg/day, 1 day",4/7
same,A.D.I. (average degree of infection),"[40]; oral 10 mg/kg/day, 1 day",0.7
same,Parasitological Cure Negative/Total,"[40]; oral 10 mg/kg/day, 3 days",7/7
same,A.D.I. (average degree of infection),"[40]; oral 10 mg/kg/day, 3 days",0
same,Parasitological Cure Negative/Total,"[40]; oral 12.5 mg/kg/day, 6 days",24/24
same,A.D.I. (average degree of infection),"[40]; oral 12.5 mg/kg/day, 6 days",0
same,Parasitological Cure Negative/Total,"[40]; oral 25 mg/kg/day, 6 days",19/19
same,A.D.I. (average degree of infection),"[40]; oral 25 mg/kg/day, 6 days",0
